Measured values: the OPERA property sets (Mansouri et al. 2018)
Where a SMILES comes first, the peptide text is derived from it. [ ]: non-standard residue; d: D form. Orn = NCCC[CH](N)C(=O)O

SMILES	logP
CC(=O)NC(Cc1ccccc1)C(=O)NC(CCC(=O)O)C(=O)NC(Cc1ccccc1)C(N)=O (stereo not drawn) (Ac-Phe-Glu-Phe-NH2; configuration not given here)	0.65
O=c1n[n+]([O-])ccn1Cc1ccccc1	0.19
Cc1n[nH]c(C(=O)NC2CCCC2)c1[N+](=O)[O-]	1.24
CC(=O)NC(CCCN)C(=O)NC(CC(C)C)C(N)=O (stereo not drawn) (Ac-[Orn]-Leu-NH2; configuration not given here)	-0.71
Clc1cc2c(cc1Cl)Oc1c(Cl)ccc(Cl)c1O2	6.39
C#CCOc1c(Cl)cc(NC=NOCC(=O)OCC)cc1Cl	3.6
CC(=O)Nc1ncnc2c1ncn2C1CC(O)C(CO)O1 (stereo not drawn)	-0.19
Cn1c([N+](=O)[O-])cnc1Cc1ccc(C(N)=O)cc1	0.55
CC(C)(N=C(O)C(Br)C(C)(C)C)c1ccccc1 (stereo not drawn)	3.47
O=C(NCO)c1c(I)c(C(=O)NCCO)c(I)c(N(CC(O)CO)C(=O)C(O)CO)c1I (stereo not drawn)	-2.65
CCOC(=O)Cn1cnc([N+](=O)[O-])c1I	0.57
CC(=O)C12OC(C)(c3ccc(F)cc3)OC1CC1C3CCC4=CC(=O)CCC4(C)C3CCC12C (stereo not drawn)	5.7
CCc1ncc([N+](=O)[O-])n1C	0.68
O=[N+]([O-])C=C1NCCN1Cc1ccncc1	-1.05
Cc1nnc(SCC2=C(C(=O)OCOC(=O)C(C)(C)C)N3C(=O)C(NC(=O)Cn4cnnn4)C3SC2)s1 (stereo not drawn)	1.34
CSCCC(NC(C)=O)C(=O)NC(Cc1ccccc1)C(N)=O (stereo not drawn)	0.42
O=c1cc2ccccc2n[nH]1	0.68
CCC(=O)C(CS(=O)(=O)c1ccccc1)c1ccc(C)cc1 (stereo not drawn)	2.7
CC(C)NCC(O)COCCCc1ccccc1 (stereo not drawn)	1.94
CCCC(CCC)(NC(C)=O)C(N)=O	0.75
CC1CC2C3CCC4=CC(=O)C=CC4(C)C3(F)C(O)CC2(C)C1(O)C(=O)NCCO (stereo not drawn)	1.51
CN1CC(O)N(c2nnc(C(C)(C)C)s2)C1=O (stereo not drawn)	1.49
O=C(Cn1c(=O)sc2ccc(Cl)cc21)N1CCN(CCOS(=O)(=O)O)CC1	-1.47
CC(=O)NC(CC(=O)O)C(=O)NC(Cc1ccccc1)C(=O)NC(CC(C)C)C(N)=O (stereo not drawn) (Ac-Asp-Phe-Leu-NH2; configuration not given here)	0.4
C[C@H]1OC(O[C@H]2[C@@H](O)CC(O[C@H]3[C@@H](O)CC(O[C@H]4CC[C@@]5(C)[C@H](CC[C@@H]6[C@@H]5CC[C@]5(C)[C@@H](C7=CC(=O)OC7)[C@@H](OC=O)C[C@]65O)C4)O[C@@H]3C)O[C@@H]2C)C[C@H](O)[C@@H]1O (stereo partly drawn)	2.04

SMILES	logP
CCN(CC)Cc1cccc(C(=O)Nc2c(C)cccc2C)c1	3.09
Cc1[nH]cnc1CSCCNc1cc(=O)cc[nH]1	0.8
COCc1ccc(O)c2ncccc12	1.78
Cc1ccc(NN=C(C#N)C#N)c([N+](=O)[O-])c1	2.5
COc1ccc(-n2ccc(=O)c(O)c2C)cc1	1.27
O=C(O)C(OCc1ccccc1)c1ccccc1 (stereo not drawn)	2
OCC1COC(Cn2cncn2)(c2ccc(Cl)cc2Cl)O1 (stereo not drawn)	1.76
CC(C)N(C=Nc1ccn(C2CC(O)C(CO)O2)c(=O)n1)C(C)C (stereo not drawn)	0.17
O=[N+]([O-])c1nc(Br)[nH]c1Br	2.82
Clc1cc(Cl)c(-c2ccc(Cl)c(Cl)c2Cl)c(Cl)c1	7.25
Cc1ccccc1CO[C@H]1C[C@]2(C(C)C)CC[C@@]1(C)O2 (single isomer, unassigned)	4.62
CC(C)(C)C(COc1ccc(C(F)(F)F)cc1)OC(=O)n1ccnc1 (stereo not drawn)	4.15
COC(=O)C1CC2C3CCC4=CC(=O)C=CC4(C)C3(F)C(O)CC2(C)C1C(=O)CO (stereo not drawn)	1.78
O=c1cc[nH]cc1	-1.3
CSC1=NCCN1c1ccc([N+](=O)[O-])o1	1.19
COC(=O)c1c(C)[nH]c(-c2ncccc2Cl)c1C(=O)OC	1.51
COC1CC(OC2CCC3(C=O)C4CCC5(C)C(C6=CC(=O)OC6)CCC5(O)C4CCC3(O)C2)OCC1O (stereo not drawn)	0.64
CCOc1ccc(NC(=O)OCCN2CCOCC2)cc1	2.18
CCOc1ccc(C(=O)O)cc1OCC	2.37
CCCCNC(=O)C1(O)C(C)CC2C3CCC4=CC(=O)C=CC4(C)C3(F)C(O)CC21C (stereo not drawn)	3.1
CCOC(=O)Cn1ccnc1C=Cc1ccc([N+](=O)[O-])o1	1.27
CC(C)N1C(=O)C(=O)c2ccccc2C1=O	1.6
CCC1COC(Cn2cncn2)(c2ccc(NC(=O)c3ccc([N+](=O)[O-])cc3)cc2)O1 (stereo not drawn)	2.17
N#CC(CCc1ccc(Cl)cc1)(Cn1cncn1)c1ccccc1 (stereo not drawn)	3.23
CCN(C)N=Nc1ccccc1C(N)=O	2.59

SMILES	logP
OCc1ccc(O)c2ncccc12	1
Cc1ncc([N+](=O)[O-])n1CCc1ccncc1	0.06
COC(=O)c1ccc(OCC(OC(=O)n2ccnc2)C(C)(C)C)cc1 (stereo not drawn)	3.59
CCCCCCC(=O)N1CCCC1=O	3.04
COc1nc(C(Cl)(Cl)Cl)nc(C(Cl)(Cl)Cl)n1	3.64
Cc1n[nH]c(C(=O)N2CCCCC2)c1[N+](=O)[O-]	0.79
CCOC(=O)c1cccc2c1C(=O)C(=O)N(CC)C2=O	1.31
c1ccc2c3c([nH]c2c1)CN1CCNCC1C3 (stereo not drawn)	0.36
CS(=O)(=O)c1ccc2ccccc2c1	1.74
Cn1c([N+](=O)[O-])cnc1-c1ccccc1	1.58
CC1(c2ccc(F)cc2)OC2CC3C4CCC5=CC(=O)CCC5C4CCC3(C)C2(C(=O)CO)O1 (stereo not drawn)	4.92
CCCOc1ccccc1NC(=O)OCCN1CCOCC1	2.78
CCOC(=O)CCC(C)n1nnc2ccccc21 (stereo not drawn)	2.64
Cc1n[nH]c(C(=O)NCc2ccccc2)c1[N+](=O)[O-]	1.49
CCOC(=O)Oc1cccc(C2(C(=O)CC)CCN(C)CC2)c1	1.29
O=C(CCn1cnc([N+](=O)[O-])n1)NCCO	-1.32
CCOC(=O)Cn1ccnc1[N+](=O)[O-]	0.33
O=C(NN=Cc1ccco1)Nc1ccccc1	2.52
S=C=NCCCCCc1ccccc1	4.4
CN(C)c1nc(=O)n(C2CCCCC2)c(=O)n1C	1.85
CCc1nc(C)c([N+](=O)[O-])[nH]1	0.76
OCC1CC(F)C(n2cnc3c(F)ncnc32)O1 (stereo not drawn)	0.06
CCOC(=O)c1ccc(OCC(OC(=S)n2ccnc2)C(C)(C)C)cc1 (stereo not drawn)	4.77
CNC(=NC#N)NCCSCc1ncn(COC(=O)C(C)(C)C)c1C	1.81
CC(C)OC(=O)c1cnc2n(c1=O)C(C)CCC2 (stereo not drawn)	0.99

SMILES	logP
CCC(C)C(NC(=O)C(CC(=O)O)NC(C)=O)C(=O)NC(Cc1ccccc1)C(N)=O (stereo not drawn)	0.61
C#CCOc1c(Cl)cc(NC=NOCC)cc1Cl	3.6
CC(=O)NC(CC(C)C)C(=O)NC(CC(=O)O)C(=O)NC(CC(C)C)C(N)=O (stereo not drawn) (Ac-Leu-Asp-Leu-NH2; configuration not given here)	0.16
Cc1cc(=O)oc2cc(OC3OC(CO)C(O)C(O)C3O)ccc12 (stereo not drawn)	-0.66
COCCOCC1COC(Cn2cncn2)(c2ccc(Cl)cc2Cl)O1 (stereo not drawn)	2.03
C#CCOc1c(Cl)cc(NC=NOc2ccc(C)cc2)cc1Cl	4.8
NC(=O)COc1cccc(Cc2cnc(N)nc2N)c1	0.28
CC(=O)NC(CC(C)C)C(=O)NC(CCC(=O)O)C(=O)NC(Cc1ccccc1)C(N)=O (stereo not drawn) (Ac-Leu-Glu-Phe-NH2; configuration not given here)	0.47
CC(O)COc1ccc(Cl)cc1 (stereo not drawn)	2.41
CCC1COC(Cn2cncn2)(c2ccc(-n3cncn3)cc2Cl)O1 (stereo not drawn)	1.28
Clc1cc(Cl)c(-c2cc(Cl)c(Cl)c(Cl)c2)cc1Cl	7.5
CCN(CC)C(=O)c1cccc2c1C(=O)C(=O)N(CC)C2=O	0.78
C#CCOc1c(Cl)cc(NC=NOC(C)C)cc1Cl	3.9
c1ccc2c(c1)Cc1ccccc1S2	3.86
Cn1c([N+](=O)[O-])cnc1COc1ccc(Cl)cc1	1.8
Clc1ccc(Sc2nc(C(Cl)(Cl)Cl)nc(C(Cl)(Cl)Cl)n2)cc1	6.67
N=c1ccn2c(n1)OC1C(O)C(CCl)OC12 (stereo not drawn)	-3.1
CCN1C(=O)C(=O)c2cc3ccccc3cc2C1=O	2.47
CNc1nc(Cl)c(SC)c(N2CCN(C)CC2)n1	2.99
Clc1ccc(-c2c(Cl)c(Cl)cc(Cl)c2Cl)cc1Cl	7.2
Cc1ccccc1NN=C(C#N)C#N	2.38
Clc1cccc(-c2c(Cl)c(Cl)cc(Cl)c2Cl)c1Cl	7.25
CC1CN(c2cc3c(cc2F)c(=O)c(C(=O)O)cn3-c2ccc(F)cc2F)CCN1 (stereo not drawn)	-0.2
CC(C)C(=O)Nc1cc(C(F)(F)F)ccc1S(N)(=O)=O	2.45
CCOC(=O)CCC(C)n1nc2ccccc2n1 (stereo not drawn)	3.05

SMILES	logP
CSC(=O)c1c(C(F)F)nc(C(F)(F)F)c(C(=O)SC)c1CC(C)C	4.75
CC1CC(C(=O)O)=C(C(=O)O)C(C)C1 (stereo not drawn)	1.53
CC1CC2C3CCC4=CC(=O)C=CC4(C)C3(F)C(O)CC2(C)C1(O)C(=O)NC(CO)c1ccccc1 (stereo not drawn)	2.89
C#CCCOCn1ccnc1C=NO	0.67
NS(=O)(=O)c1ccc2ccccc2c1	1.55
CC(=O)c1c(C)n(C)c2ccccc12	2.03
COC(=O)Cc1ccc(O)c2ncccc12	1.59
CC1(c2ccccc2)OC(=O)NC1=O (stereo not drawn)	1.85
O=[N+]([O-])c1nccn1COC(CO)CO	-1.17
O=S(=O)(NCc1ccccc1)C(F)(F)F	2.91
O=C(O)c1cccc2cccc(C(=O)O)c12	1.98
CCCCCCCOc1ccc(NC(=O)OCCN2CCOCC2)cc1	4.96
CC(=O)OC(C(=O)NC1C(=O)N2C(C(=O)O)=C(C)CSC12)c1ccccc1 (stereo not drawn)	1.02
CCCCCc1cc(OCc2ccc(-c3ccccc3)cc2)c2c(c1)OC(C)(C)C1CC=C(C)CC21 (stereo not drawn)	10.9
CCCC(C)C(=O)OCC1CCC(n2cnc3c(=O)[nH]cnc32)O1 (stereo not drawn)	1
O=c1[nH]c2ccccc2n1C1CCN(CC(O)C2COc3ccccc3O2)CC1 (stereo not drawn)	3.43
C#CCOc1c(Cl)cc(NC=NOCOC)cc1Cl	3.2
CCCCOc1ccc(OCC(OC(=O)n2ccnc2)C(C)(C)C)cc1 (stereo not drawn)	4.29
CCN(CC)C(=O)COC(=O)c1ccccc1O	1.99
CCC(=O)C1(c2cccc(OC(=O)OC(C)C)c2)CCN(C)CC1	1.72
Cc1cccc(C)c1N	1.84
Cc1nc(Cl)c([N+](=O)[O-])n1C	0.87
CC(=O)NC(Cc1ccccc1)C(=O)NC(CCCCN)C(N)=O (stereo not drawn)	0.14
